According to US7303762B2, “Absorption enhancers” (Axcess Limited, priority 2000, dated 2007):

Assays:
Caco-2 cells = test: Trans-epithelial electrical resistance (TEER) across Caco-2 mono-layer; assay type: cell-based, human; conditions: four replicates
Description: Caco-2 cells (a cell-line derived from human colon adenocarcinoma) were grown as a confluent mono-layer on the surface of a porous membrane (pore size 0.4 μm, surface area 0.33 cm^2) separating two aqueous compartments, the upper compartment filled with 200 μl of culture medium, and the lower compartment containing 600 μl. Electrical resistance across the mono-layer was measured using an epithelial voltohmeter connected to electrodes inserted into the medium on either side of the mono-layer in the upper and lower compartments. This trans-epithelial electrical resistance (TEER) was measured immediately before, and 15 minutes after the addition of aromatic alcohols to the upper compartment (see Table 6 below). Use of the compounds diluted two to four-fold below those concentrations shown eliminates the falls in electrical resistance observed. Fall in TEER is considered indicative of the appearance of aqueous channels between cells, and is evidence that the mechanism of action of the aromatic alcohols tested, in exerting their absorption enhancing activity, is via opening or loosening of tight junctions between intestinal cells.

[1] = Plasma glucose after intra-jejunal administration of insulin capsules to conscious pigs; assay type: in vivo; conditions: one capsule
Description: Formulations prepared as described in examples 1 and 2 were administered (one capsule per animal) directly to the intestine of conscious pigs (40 to 60 kg) via an in-dwelling stoma implanted surgically in the jejunum. Before and after administration, at the intervals shown, blood samples were taken for analysis of blood glucose levels. As a control, capsules containing 200 iu of unformulated insulin were also administered intra-jejunally.

Molecule | TEER 15 minutes after (Caco-2 cells; 15 minutes after addition to upper compartment, concentration 40 μl/ml) | TEER Before addition (Caco-2 cells; immediately before addition of agent) | Changes in plasma glucose ([1]; 15 minutes, + s.d.) | Changes in plasma glucose ([1]; 30 minutes, + s.d.) | Changes in plasma glucose ([1]; 45 minutes, + s.d.) | Changes in plasma glucose ([1]; 60 minutes, + s.d.) | Changes in plasma glucose ([1]; 90 minutes, + s.d.) | Changes in plasma glucose ([1]; 120 minutes, + s.d.) | Changes in plasma glucose ([1]; 180 minutes, + s.d.) | Changes in plasma glucose ([1]; 240 minutes, + s.d.) | Changes in plasma glucose ([1]; time −10 minutes)
OCc1ccccc1 [Benzyl alcohol] | −1.6 ± 3.2 ohm · cm^2 | 447.2 ± 76.9 ohm · cm^2 |  |  |  |  |  |  |  |  | 
Control (unformulated insulin): capsules containing 200 iu of unformulated insulin administered intra-jejunally |  |  | 0.01 + 0.24 mmol/l | −0.05 + 0.21 mmol/l | −0.06 + 0.17 mmol/l | −0.32 + 0.23 mmol/l | −0.17 + 0.21 mmol/l | −0.22 + 0.32 mmol/l | −0.13 + 0.21 mmol/l | −0.34 + 0.32 mmol/l | 0.00 mmol/L
